# Experimental data published in US20230080144A1, “REAL-TIME FLUORESCENCE IMAGING SENSOR FOR MEASURING GLUTATHIONE IN ENDOPLASMIC RETICULUM AND METHOD USING SAME” (CELL2IN, INC., priority 2019, published 2023).
# Test system: UC-MSCs
# Test: Cytotoxicity test (EZ-cytox)
# Type: cell-based
# Details: for IC50: 24 hours treatment at 5, 10, 20 and 40 μM, absorbance at 450 nm
# Method: (1) UC-MSCs (4×10^3 cells/well) were cultured in 96-well dishes for 24 hours. (2) The cells were treated with […] of each of ER-FT derivative compounds (Formulas IV to VII) at concentrations of 5, 10, 20 and 40 μM and then incubated at 37° C. for 24 hours. (3) 10 μl of 10× EZ-cytox was added to each well, followed by incubation for 3 hours. (4) The absorbance at 450 nm was measured using a plate reader (reference wavelength: 600 to 650 nm).
Compound,toxicity (comparison among Formulas IV to VII) (24 hours),IC50
Cc1ccc(S(=O)(=O)NCCNC(=O)C2CCN(C(=O)C(C#N)=Cc3cc4cc5c6c(c4oc3=O)CCCN6CCC5)CC2)cc1 [Formula IV],lowest toxicity,43.4 µM
N#CC(=Cc1cc2cc3c4c(c2oc1=O)CCCN4CCC3)C(=O)N1CCC(C(=O)NCCCOCCOCCOCCCNC(=O)c2c(F)c(F)c(F)c(F)c2F)CC1 [Formula VII],,13.3 µM
N#CC(=Cc1cc2cc3c4c(c2oc1=O)CCCN4CCC3)C(=O)N1CCC(C(=O)NCCNC(=O)c2c(F)c(F)c(F)c(F)c2F)CC1 [Formula VI],,33.4 µM
Cc1ccc(S(=O)(=O)NCCCOCCOCCOCCCNC(=O)C2CCN(C(=O)C(C#N)=Cc3cc4cc5c6c(c4oc3=O)CCCN6CCC5)CC2)cc1 [Formula V],,36.4 µM
